A short description of data set [1]: Toxicity of chemotherapy, radioimmunotherapy and combination therapy by weight loss (FIG. 8). On the set-up: species or system Swiss nude mice. To be noted: Swiss nude, mouse, in vivo, intravenous; together with Leucovorin at 120 mg/kg.
In the next data set the test system is Colau.C35 tumor cells. As to the kind of experiment: Combination radioimmunotherapy and chemotherapy, second experiment (FIG. 6, Table 6). The data set is classed as in vivo, Swiss nude mice. The protocol: Swiss nude mice were grafted with Colau.C35 cells on day 0. Chemotherapy: Cisplatin administered at 2 mg/kg i.v. on days 15 & 18; 5FU/LV administered at 180/120 mg/kg i.v. on day 18.
Cispaltin was administered on days 15 and 18 following tumor graft. […] Tumor growth was followed for up to 10 weeks.

The conditions of data set [2]: cited from earlier work.
The test system of another data set is 21MT1 tumor cells. As to the kind of experiment: C35 surface staining following drug induced apoptosis (flow cytometry). The data set is classed as cell-based. The protocol: 24 hours following treatment with 0.5 uM Taxol™, 21MT1 tumor cells were stained with annexin V-FITC, propidium iodide, and with either 100 ng anti-C35 antibody 1F2 (dark line) or isotype control (grey fill) antibody. Both antibodies were directly conjugated to Alexa-647. Histograms were gated on the cells undergoing apoptosis (annexinV positive/PI negative). Antibodies were pre-incubated with PAB buffer (FIG. 3A), 100-fold molar excess recombinant C35 protein (FIG. 3B), or 100-fold molar excess β-galactosidase protein (FIG. 3C).
A line of continuously growing breast tumor cells that express the C35 tumor antigen was either treated with 6 ug/ml mitomycin C or left untreated. After continued in vitro culture for 48 hours to allow apoptosis to develop, cells were harvested, washed and stained with 50 ng of 1F2 monoclonal anti-C35 antibody or a mouse IgG antibody control each conjugated to the fluorescent dye Alexa 647. Following 50 minutes incubation at 25° C., cells were stained with Annexin V and propidium iodide (PI) using a standard commercial kit (Pharmingen). Cells were analyzed for staining with Annexin V, propidium iodide and Alexa 647 by flow cytometry employing standard protocols.
(In general: In flow cytometry, cells or beads pass a laser one at a time.)

Data set [3] concerns rabbit anti-human C35 polyclonal antibody. Description: ELISA of rabbit C35 immune serum on plates coated with C35 15-mer peptides. The data set is classed as binding.
The mark [4] stands for this setting: literature values, schedule as in table.
Where [5] appears, read: non-toxic dose at indicated schedule (dose of column Dose + RIT).
Setting [6] is: 14 μg/ml peptide coated plates, 100 ng/ml primary antibody.
Setting [7] is: 40 μg/ml peptide coated plates, 1 μg/ml primary antibody.

Like-named read-outs stand apart in the source and are kept apart here.

Consider `O=c1[nH]cc(F)c(=O)[nH]1` [5-FluoroUracil], for which the MTD in data set [1] worked out at 180 mg/kg.

As for `N.N.[Cl][Pt][Cl]` [Cisplatin], the “TDD = Tumor doubling delay” value in the data set with Colau.C35 tumor cells (T − C/tumor volume doubling time of untreated) amounted to 0.66. Further, the “LCK = Log Cell Kill” value in the data set with Colau.C35 tumor cells (TDD/3.32) is 0.20. Moreover, the “Colau.C35 tumor growth (FIG. 6)” value with Colau.C35 tumor cells (cisplatin 2 mg/kg days 15, 18, 5FU/LV 180/120 mg/kg day 18, 300 μCi ^131I-1B3 day 21) was “some inhibition”. The “T − C: difference in time for treated and control tumors to reach a given volume” value in the data set on Colau.C35 tumor cells (volume 1200 mm^3) is on record as 5 days. In addition, in data set [2] (setting [4]), the “Maximum Tolerated Dose” value is reported as 4 mg/kg.

As to `O=P1(N(CCCl)CCCl)NCCCO1` (centres unmarked) [Cyclophosphamide], the “Maximum Tolerated Dose” value in data set [2] (setting [5]) is on record as “No toxicity ^2”.

Consider `Nc1ccn([C@@H]2O[C@H](CO)[C@@H](O)C2(F)F)c(=O)n1` [Gemcitabine], for which the “Maximum Tolerated Dose” value in data set [2] (setting [5]) is on record as “No toxicity ^5”.

`O=C1[O][Pt]2([NH][C@@H]3CCCC[C@H]3[NH]2)[O]C1=O` [Oxaliplatin]: the “Maximum Tolerated Dose” value in data set [2] (setting [4]) is 5 mg/kg.

In the case of `CC(=O)O[C@H]1C(=O)[C@@]2(C)[C@H]([C@H](OC(=O)c3ccccc3)[C@]3(O)C[C@H](OC(=O)[C@H](O)[C@@H](NC(=O)c4ccccc4)c4ccccc4)C(C)=C1C3(C)C)[C@]1(OC(C)=O)CO[C@@H]1C[C@@H]2O` [Taxol, paclitaxel], the “induction of apoptosis and C35 surface exposure” value in the data set on 21MT1 tumor cells (0.5 uM, 24 hours, stained with 1F2) is on record as “induces apoptosis, resulting in exposure of C35 on the surface of apoptotic tumor cells”. For the same molecule, in data set [2] (setting [5]), the “Maximum Tolerated Dose” value is recorded as “No toxicity ^2”.

Consider `CO[C@@]12[C@H](COC(N)=O)C3=C(C(=O)C(C)=C(N)C3=O)N1C[C@@H]1N[C@@H]12` [mitomycin C], for which, in the data set on 21MT1 tumor cells (6 ug/ml, 48 hours, PI negative, Annexin V positive cells), the “C35 surface staining of treated cells undergoing apoptosis” value is given as “clearly differentially stained with anti-C35 antibodies as compared to isotype control antibody”.

Take AFEIEINGQLVFSKL [P64]: the figures for the “Absorbance @ 450-570 nm” value in data set [3] (setting [6]) and in data set [3] (setting [7]) were 0.055 and 0.423, respectively.

For the molecule AIRRASNGETLEKIT [P92], the “Absorbance @ 450-570 nm” value in data set [3] (setting [6]) was 0.04; in data set [3] (setting [7]), 0.267.

Turning to APPPEEVEPGSGVRI [P11], the “Absorbance @ 450-570 nm” value came to 1.526 in data set [3] (setting [6]) and 3.317 in data set [3] (setting [7]).

With DLIEAIRRASNGETL [P88], the “Absorbance @ 450-570 nm” value in data set [3] (setting [6]) is on record as 0.025; in data set [3] (setting [7]), 0.135.

For the molecule EAIRRASNGETLEKI [P91], the “Absorbance @ 450-570 nm” value in data set [3] (setting [6]) is 0.023; in data set [3] (setting [7]) it was 0.144.

Take EEVEPGSGVRIVVEY [P15]: the “Absorbance @ 450-570 nm” value in data set [3] (setting [6]) is on record as 0.039; in data set [3] (setting [7]), 0.334.

EIEINGQLVFSKLEN [P66]: the “Absorbance @ 450-570 nm” value is reported as 0.028 in data set [3] (setting [6]) and 0.182 in data set [3] (setting [7]).

Turning to EKDLIEAIRRASNGE [P86], the “Absorbance @ 450-570 nm” value worked out at 0.023 in data set [3] (setting [6]) and 0.166 in data set [3] (setting [7]).

Turning to EPGQTSVAPPPEEVE [P4], the “Absorbance @ 450-570 nm” value in data set [3] (setting [6]) was found to be 1.254; in data set [3] (setting [7]) it was 3.282.

Turning to ETLEKITNSRPPAVI [P100], the “Absorbance @ 450-570 nm” value in data set [3] (setting [6]) is given as 0.017; in data set [3] (setting [7]) it was 0.124.

As to EVEPGSGVRIVVEYA [P16], the “Absorbance @ 450-570 nm” value in data set [3] (setting [6]) is given as 0.027; in data set [3] (setting [7]), 0.172.

As to FEIEINGQLVFSKLE [P65], the “Absorbance @ 450-570 nm” value is reported as 0.043 in data set [3] (setting [6]) and 0.269 in data set [3] (setting [7]).

With FPYEKDLIEAIRRAS [P83], the “Absorbance @ 450-570 nm” value worked out at 0.025 in data set [3] (setting [6]) and 0.19 in data set [3] (setting [7]).

On to GAFEIEINGQLVFSK [P63], for which the results for the “Absorbance @ 450-570 nm” value in data set [3] (setting [6]) and in data set [3] (setting [7]) were 0.079 and 0.557, respectively.

Consider GEPGQTSVAPPPEEV [P3], for which the “Absorbance @ 450-570 nm” value in data set [3] (setting [6]) is listed as 1.458; in data set [3] (setting [7]) it was 3.349.

Turning to GETLEKITNSRPPAV [P99], the “Absorbance @ 450-570 nm” value is given as 0.026 in data set [3] (setting [6]) and 0.18 in data set [3] (setting [7]).

In the case of GFPYEKDLIEAIRRA [P82], the “Absorbance @ 450-570 nm” value in data set [3] (setting [6]) is given as 0.02; in data set [3] (setting [7]), 0.18.

For the molecule GGFPYEKDLIEAIRR [P81], the “Absorbance @ 450-570 nm” value in data set [3] (setting [6]) is reported as 0.032; in data set [3] (setting [7]), 0.204.

Consider GQTSVAPPPEEVEPG [P6], for which the “Absorbance @ 450-570 nm” value in data set [3] (setting [6]) stood at 2.483; in data set [3] (setting [7]), 3.381.

On to IEAIRRASNGETLEK [P90], for which the “Absorbance @ 450-570 nm” value in data set [3] (setting [6]) is listed as 0.04; in data set [3] (setting [7]), 0.403.

As to IRRASNGETLEKITN [P93], the “Absorbance @ 450-570 nm” value in data set [3] (setting [6]) stood at 0.051; in data set [3] (setting [7]), 0.389.

As to LIEAIRRASNGETLE [P89], the “Absorbance @ 450-570 nm” value came to 0.015 in data set [3] (setting [6]) and 0.053 in data set [3] (setting [7]).

MSGEPGQTSVAPPPE [P1]: the “Absorbance @ 450-570 nm” value in data set [3] (setting [6]) is 0.257.

Take NGETLEKITNSRPPA [P98]: the “Absorbance @ 450-570 nm” value in data set [3] (setting [6]) is listed as 0.035; in data set [3] (setting [7]), 0.213.

Regarding NGGFPYEKDLIEAIR [P80], the results for the “Absorbance @ 450-570 nm” value in data set [3] (setting [6]) and in data set [3] (setting [7]) were 0.018 and 0.1, respectively.

With PEEVEPGSGVRIVVE [P14], the “Absorbance @ 450-570 nm” value in data set [3] (setting [6]) is on record as 0.127; in data set [3] (setting [7]) it was 0.972.

On to PGQTSVAPPPEEVEP [P5], for which the figures for the “Absorbance @ 450-570 nm” value in data set [3] (setting [6]) and in data set [3] (setting [7]) were 2.719 and 3.383, respectively.

PPEEVEPGSGVRIVV [P13]: the results for the “Absorbance @ 450-570 nm” value in data set [3] (setting [6]) and in data set [3] (setting [7]) were 0.385 and 2.522, respectively.

For the molecule PPPEEVEPGSGVRIV [P12], the “Absorbance @ 450-570 nm” value in data set [3] (setting [6]) stood at 0.836.

As to PYEKDLIEAIRRASN [P84], the “Absorbance @ 450-570 nm” value was found to be 0.037 in data set [3] (setting [6]) and 0.391 in data set [3] (setting [7]).

Turning to QTSVAPPPEEVEPGS [P7], the “Absorbance @ 450-570 nm” value in data set [3] (setting [6]) stood at 2.635; in data set [3] (setting [7]) it was 3.388.

For the molecule RASNGETLEKITNSR [P95], the “Absorbance @ 450-570 nm” value in data set [3] (setting [6]) is 0.062; in data set [3] (setting [7]), 0.462.

Take RRASNGETLEKITNS [P94]: the “Absorbance @ 450-570 nm” value turned out to be 0.061 in data set [3] (setting [6]) and 0.526 in data set [3] (setting [7]).

For SGEPGQTSVAPPPEE [P2], the “Absorbance @ 450-570 nm” value is 0.108 in data set [3] (setting [6]) and 1.227 in data set [3] (setting [7]).

Turning to SNGETLEKITNSRPP [P97], the figures for the “Absorbance @ 450-570 nm” value in data set [3] (setting [6]) and in data set [3] (setting [7]) were 0.046 and 0.373, respectively.

Turning to SVAPPPEEVEPGSGV [P9], the “Absorbance @ 450-570 nm” value in data set [3] (setting [6]) came out at 2.31; in data set [3] (setting [7]), 3.367.

Consider TGAFEIEINGQLVFS [P62], for which the “Absorbance @ 450-570 nm” value in data set [3] (setting [6]) came out at 0.023; in data set [3] (setting [7]) it was 0.107.

With TLEKITNSRPPAVIL [P101], the “Absorbance @ 450-570 nm” value turned out to be 0.472 in data set [3] (setting [6]) and 2.519 in data set [3] (setting [7]).

With TSVAPPPEEVEPGSG [P8], the “Absorbance @ 450-570 nm” value in data set [3] (setting [6]) is 0.059; in data set [3] (setting [7]), 0.394.

On to VAPPPEEVEPGSGVR [P10], for which the “Absorbance @ 450-570 nm” value in data set [3] (setting [6]) is recorded as 1.736; in data set [3] (setting [7]), 3.407.

With YEKDLIEAIRRASNG [P85], the “Absorbance @ 450-570 nm” value in data set [3] (setting [6]) was found to be 0.024; in data set [3] (setting [7]) it was 0.179.

(Values after patent US20080305111A1, “Anti-C35 antibodies for treating cancer” (VACCINEX, INC., priority 2006, published 2008).)
